In publication PMC4887496, “The Mouthparts Enriched Odorant Binding Protein 11 of the Alfalfa Plant Bug Adelphocoris lineolatus Displays a Preferential Binding Behavior to Host Plant Secondary Metabolites” (Frontiers in Physiology, 2016):

test system: AlucOBP36; test: not given; parameters: method as in Hua et al., 2012; conditions: antennae expressed AlucOBP36; ref Hua et al., 2012; cited from earlier work

Row | Compound | binding abilities to AlucOBP36 (in words)
1 | C[C@@H]1O[C@@H](OC[C@H]2O[C@@H](Oc3c(-c4ccc(O)c(O)c4)oc4cc(O)cc(O)c4c3=O)[C@H](O)[C@@H](O)[C@@H]2O)[C@H](O)[C@H](O)[C@H]1O.O [Rutin hydrate] | better binding abilities

molecular target: T1, recombinant AlinOBP11 (Adelphocoris lineolatus, UniProt F4Y5P9); test: biochemical; type: binding; conditions: not given
T1 sequence (F4Y5P9 entry or part of it): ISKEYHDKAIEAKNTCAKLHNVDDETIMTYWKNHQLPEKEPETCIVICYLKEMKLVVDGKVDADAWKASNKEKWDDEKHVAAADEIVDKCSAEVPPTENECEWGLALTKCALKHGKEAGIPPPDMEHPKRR

Row | Compound | IC50 | Ki
2 | CCCCCCO [1-Hexanol] | > 30 µM | –
3 | CCCCC(C)=O [2-Hexanone] | > 30 µM | –
4 | CC(=O)CCC=C(C)C [6-Methyl-5-hepten-2-one] | > 30 µM | –
5 | CC(=O)c1ccccc1 [Acetophenone] | > 30 µM | –
6 | O=Cc1ccccc1 [Benzaldehyde] | > 30 µM | –
7 | CCCC(=O)OCC [Ethyl butyrate] | > 30 µM | –
8 | Cc1cc2c(C(C)C)c(O)c(O)c(C=O)c2c(O)c1-c1c(C)cc2c(C(C)C)c(O)c(O)c(C=O)c2c1O [Gossypol] | 4.45 ± 0.34 µM | 3.43 ± 0.32 µM
9 | CCCCCCC=O [Heptanal] | > 30 µM | –
10 | CCCCCC=O [Hexanal] | > 30 µM | –
11 | c1ccc2[nH]ccc2c1 [Indole] | > 30 µM | –
12 | COC(=O)c1ccccc1O [Methyl salicylate] | > 30 µM | –
13 | CC/C=C\CCO [cis-3-Hexen-1-ol] | > 30 µM | –
14 | CCC/C=C/C=O [trans-2-Hexenal] | > 30 µM | –
15 | CC1=CC[C@H](C(C)C)C=C1 [α-Phellandrene] | 26.2 ± 0.52 µM | 20.1 ± 0.41 µM
16 | C=C1CC/C=C(\C)CC[C@@H]2[C@@H]1CC2(C)C [β-Caryophyllene] | > 30 µM | –
17 | CC(=O)/C=C/C1=C(C)CCCC1(C)C [β-Ionone] | > 30 µM | –
18 | C=C1CCC2CC1C2(C)C (stereo not drawn) [β-Pinene] | > 30 µM | –

same assay, conditions: 2 μM protein, 2 μM 1-NPN, 50 mM Tris-HCl pH 7.4, competitor 2 to 30 μM, 25°C; read-out: IC50 (μM) AlinOBP11

Row | IC50 | Compound
19 | 27.2 ± 0.71 µM | C=CC(C)(O)CCC=C(C)CCC=C(C)C (mixture of isomers) [Nerolidol]
20 | > 30 µM | CCCCCC(C)=O [2-Heptanone]
21 | > 30 µM | CCCCC(C)O (stereo not shown) [2-Hexanol]
22 | > 30 µM | CCCCCCC(C)=O [2-Octanone]
23 | > 30 µM | Cc1ccc(C=O)cc1C [3,4-Dimethyl-benzaldehyde]
24 | > 30 µM | CCCC(=O)CC [3-Hexanone]
25 | 19.3 ± 0.93 µM | Oc1cc(O)c2c(c1)O[C@@H](c1ccc(O)c(O)c1)[C@H](O)C2 [(−)-Catechin]
26 | > 30 µM | CCCCCOC(C)=O [Amyl acetate]
27 | > 30 µM | CCCCOC(=O)CCC [Butyl butyrate]
28 | > 30 µM | C=C/C(C)=C/CC=C(C)C [E-β-Ocimene]
29 | > 30 µM | CCCCCCOC(=O)CCC [Hexyl butyrate]
30 | > 30 µM | CCCCCCOC(=O)CCCCC [Hexyl hexanoate]
31 | > 30 µM | C=CC(=C)CCC=C(C)C [Myrcene]
32 | > 30 µM | CCCCCCCCC=O [Nonanal]
33 | > 30 µM | CCCCCCCCCOC(C)=O [Nonyl acetate]
34 | > 30 µM | CCCCCCCC=O [Octanal]
35 | > 30 µM | CCCCCO [Pentanol]
36 | > 30 µM | CCCCCCCCCCC [Undecane]
37 | > 30 µM | CCCCC=O [Valeraldehyde]
38 | > 30 µM | CC/C=C\CCOC(C)=O [cis-3-hexenyl acetate]
39 | > 30 µM | CCC/C=C/COC(=O)CCC [trans-2-hexenyl butyrate]

Row | Compound | IC50
40 | C=C(C)[C@H]1CC=C(C)CC1 [Limonene] | > 30 µM
41 | C[C@@H]1O[C@@H](OC[C@H]2O[C@@H](Oc3c(-c4ccc(O)c(O)c4)oc4cc(O)cc(O)c4c3=O)[C@H](O)[C@@H](O)[C@@H]2O)[C@H](O)[C@H](O)[C@H]1O.O [Rutin hydrate] | 9.89 ± 1.61 µM
42 | CC(C)=CCC/C(C)=C/CC/C(C)=C/CO [trans,trans-Farnesol] | 25.2 ± 2.36 µM
43 | C=CC(=C)CC/C=C(\C)CCC=C(C)C [trans-β-Farnesene] | > 30 µM
44 | C/C1=C\CC/C(C)=C/CC(C)(C)/C=C/C1 [α-Humulene] | > 30 µM
45 | (+)-α-Pinene | > 30 µM

same assay, conditions: […]; 2 μM protein, 2 μM 1-NPN, pH 7.4; read-out: Ki (μM) AlinOBP11

Row | Ki | Compound
46 | 15.3 ± 0.7 µM | Oc1cc(O)c2c(c1)O[C@@H](c1ccc(O)c(O)c1)[C@H](O)C2 [(−)-Catechin]

same assay, conditions: calculated from IC50: Ki = [IC50]/(1+[1-NPN]/K1-NPN); 2 μM protein, 2 μM 1-NPN, pH 7.4; read-out: Ki (μM) AlinOBP11

Row | Compound | Ki
47 | C=CC(C)(O)CCC=C(C)CCC=C(C)C (mixture of isomers) [Nerolidol] | 20.8 ± 0.55 µM
48 | C[C@@H]1O[C@@H](OC[C@H]2O[C@@H](Oc3c(-c4ccc(O)c(O)c4)oc4cc(O)cc(O)c4c3=O)[C@H](O)[C@@H](O)[C@@H]2O)[C@H](O)[C@H](O)[C@H]1O.O [Rutin hydrate] | 7.78 ± 1.23 µM
49 | CC(C)=CCC/C(C)=C/CC/C(C)=C/CO [trans,trans-Farnesol] | 19.3 ± 1.78 µM

molecular target: T1, recombinant AlinOBP11; test: Binding of fluorescent probe 1-NPN to recombinant AlinOBP11 (fluorescence titration, Scatchard plot); conditions: 2 μM protein in 50 mM Tris-HCl pH 7.4, 1-NPN 1 to 16 μM; read-out: dissociation constant of the AlinOBP11/1-NPN complex

Row | Compound | Kd
50 | c1ccc(Nc2cccc3ccccc23)cc1 [1-NPN, N-phenyl-1-naphthylamine] | 5.86 ± 0.47 µM
